{"source": "PubChem BioAssay AID2060618", "about": "(Molecular Pharmacology Branch, DTP, NCI, 2025);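 also: spheroids exposed to compounds for 7 days before readout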", "system": "454973-116-R2-J3-PDC spheroids, percent test/control viability", "test": "Anticancer human tumor 454973-116-R2-J3-PDC patient-derived pancreatic carcinoma cell line growth inhibition [CLK]", "conditions": "spheroids with HUVEC and MSC; for IC50: curve of first compound; for viability, T/C: stronger effect = lower value", "outline": "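Multi-cell-type spheroids combined patient-derived tumor cells with HUVEC endothelial cells and human mesenchymal stem cells. Paired agents were dosed in half-log steps down from about clinical Cmax, or from 10 microM where Cmax was unknown.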"}
{"smiles": "NC(=O)C(=Cn1cnc(-c2cc(C(F)(F)F)cc(C(F)(F)F)c2)n1)c1cncnc1", "note": "+ CN1CCN(c2cc(C(=O)Nc3cc4cc(-c5cnn(C)c5)ccc4cn3)ccn2)CC1", "values": [{"measurement": "IC50", "setting": "second compound 0.0316 µM", "result": 530, "unit": "nM"}, {"measurement": "IC50", "setting": "second compound 0.1 µM", "result": 167, "unit": "nM"}, {"measurement": "IC50", "setting": "second compound 0.316 µM", "result": "< 9.49", "unit": "nM"}, {"measurement": "IC50", "setting": "second compound 1 µM", "result": "< 9.49", "unit": "nM"}, {"measurement": "IC50", "setting": "second compound 3.16 µM", "result": "< 9.49", "unit": "nM"}, {"measurement": "IC50", "setting": "second compound 10 µM", "result": "< 9.49", "unit": "nM"}, {"measurement": "viability, T/C", "setting": "second compound 0.0316 µM, first compound 0.00949 µM", "result": 93.1, "unit": "%"}, {"measurement": "viability, T/C", "setting": "second compound 0.0316 µM, first compound 0.03 µM", "result": 96.2, "unit": "%"}, {"measurement": "viability, T/C", "setting": "second compound 0.0316 µM, first compound 0.0949 µM", "result": 70.5, "unit": "%"}, {"measurement": "viability, T/C", "setting": "second compound 0.0316 µM, first compound 0.3 µM", "result": 65.9, "unit": "%"}, {"measurement": "viability, T/C", "setting": "second compound 0.0316 µM, first compound 0.949 µM", "result": 36.9, "unit": "%"}, {"measurement": "viability, T/C", "setting": "second compound 0.0316 µM, first compound 3 µM", "result": 9.03, "unit": "%"}, {"measurement": "viability, T/C", "setting": "second compound 0.1 µM, first compound 0.00949 µM", "result": 81.8, "unit": "%"}, {"measurement": "viability, T/C", "setting": "second compound 0.1 µM, first compound 0.03 µM", "result": 65.2, "unit": "%"}, {"measurement": "viability, T/C", "setting": "second compound 0.1 µM, first compound 0.0949 µM", "result": 62.8, "unit": "%"}, {"measurement": "viability, T/C", "setting": "second compound 0.1 µM, first compound 0.3 µM", "result": 41, "unit": "%"}, {"measurement": "viability, T/C", "setting": "second compound 0.1 µM, first compound 0.949 µM", "result": 20.2, "unit": "%"}, {"measurement": "viability, T/C", "setting": "second compound 0.1 µM, first compound 3 µM", "result": 2, "unit": "%"}, {"measurement": "viability, T/C", "setting": "second compound 0.316 µM, first compound 0.00949 µM", "result": 0.71, "unit": "%"}, {"measurement": "viability, T/C", "setting": "second compound 0.316 µM, first compound 0.03 µM", "result": 0.67, "unit": "%"}, {"measurement": "viability, T/C", "setting": "second compound 0.316 µM, first compound 0.0949 µM", "result": 0.65, "unit": "%"}, {"measurement": "viability, T/C", "setting": "second compound 0.316 µM, first compound 0.3 µM", "result": 0.1, "unit": "%"}, {"measurement": "viability, T/C", "setting": "second compound 0.316 µM, first compound 0.949 µM", "result": 0.08, "unit": "%"}, {"measurement": "viability, T/C", "setting": "second compound 0.316 µM, first compound 3 µM", "result": 0.11, "unit": "%"}, {"measurement": "viability, T/C", "setting": "second compound 1 µM, first compound 0.00949 µM", "result": 0.11, "unit": "%"}, {"measurement": "viability, T/C", "setting": "second compound 1 µM, first compound 0.03 µM", "result": 0.15, "unit": "%"}, {"measurement": "viability, T/C", "setting": "second compound 1 µM, first compound 0.0949 µM", "result": 1.14, "unit": "%"}, {"measurement": "viability, T/C", "setting": "second compound 1 µM, first compound 0.3 µM", "result": 0.08, "unit": "%"}, {"measurement": "viability, T/C", "setting": "second compound 1 µM, first compound 0.949 µM", "result": 0.08, "unit": "%"}, {"measurement": "viability, T/C", "setting": "second compound 1 µM, first compound 3 µM", "result": 0.06, "unit": "%"}, {"measurement": "viability, T/C", "setting": "second compound 3.16 µM, first compound 0.00949 µM", "result": 0.08, "unit": "%"}, {"measurement": "viability, T/C", "setting": "second compound 3.16 µM, first compound 0.03 µM", "result": 0.28, "unit": "%"}, {"measurement": "viability, T/C", "setting": "second compound 3.16 µM, first compound 0.0949 µM", "result": 0.13, "unit": "%"}, {"measurement": "viability, T/C", "setting": "second compound 3.16 µM, first compound 0.3 µM", "result": 0.13, "unit": "%"}, {"measurement": "viability, T/C", "setting": "second compound 3.16 µM, first compound 0.949 µM", "result": 0.1, "unit": "%"}, {"measurement": "viability, T/C", "setting": "second compound 3.16 µM, first compound 3 µM", "result": 0.72, "unit": "%"}, {"measurement": "viability, T/C", "setting": "second compound 10 µM, first compound 0.00949 µM", "result": 1.5, "unit": "%"}, {"measurement": "viability, T/C", "setting": "second compound 10 µM, first compound 0.03 µM", "result": 0.12, "unit": "%"}, {"measurement": "viability, T/C", "setting": "second compound 10 µM, first compound 0.0949 µM", "result": 0.2, "unit": "%"}, {"measurement": "viability, T/C", "setting": "second compound 10 µM, first compound 0.3 µM", "result": 0.2, "unit": "%"}, {"measurement": "viability, T/C", "setting": "second compound 10 µM, first compound 0.949 µM", "result": 0.22, "unit": "%"}, {"measurement": "viability, T/C", "setting": "second compound 10 µM, first compound 3 µM", "result": 0.23, "unit": "%"}]}
